# Key:
# JAK3 = JAK3 (Homo sapiens (Human), UniProt P52333); test: Biochemical JAK and Tyk2 kinase assays (LanthaScreen): JAK3; conditions: for Ki: 1 h pre-incubation, ATP at Km, pIC50 converted to pKi by Cheng-Prusoff, read-out: JAK 3 (pKi) (converted); for JAK3 (pKi)-JAK1 (pKi): difference of pKi values, selectivity JAK3 over JAK1
# Outline: (§1)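 Recombinant GST-tagged JAK enzymes with GFP-tagged STAT1 peptide substrate in 50 mM HEPES pH 7.5, 10 mM MgCl2, 1 mM EGTA, 0.01% Brij-35. Compounds pre-incubated 1 h at ambient temperature before ATP start; 1 h reaction, then EDTA plus Tb-anti-pSTAT1 (pTyr701) TR-FRET read. IC50 from 4-parameter fit, converted to pKi by Cheng-Prusoff.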
# Tyk2 = Tyk2 (Homo sapiens (Human), UniProt P29597); test: Biochemical JAK and Tyk2 kinase assays (LanthaScreen): Tyk2; conditions: 1 h pre-incubation, ATP at Km; pIC50 converted to pKi by Cheng-Prusoff
# Chain of Tyk2 (P29597 whole entry): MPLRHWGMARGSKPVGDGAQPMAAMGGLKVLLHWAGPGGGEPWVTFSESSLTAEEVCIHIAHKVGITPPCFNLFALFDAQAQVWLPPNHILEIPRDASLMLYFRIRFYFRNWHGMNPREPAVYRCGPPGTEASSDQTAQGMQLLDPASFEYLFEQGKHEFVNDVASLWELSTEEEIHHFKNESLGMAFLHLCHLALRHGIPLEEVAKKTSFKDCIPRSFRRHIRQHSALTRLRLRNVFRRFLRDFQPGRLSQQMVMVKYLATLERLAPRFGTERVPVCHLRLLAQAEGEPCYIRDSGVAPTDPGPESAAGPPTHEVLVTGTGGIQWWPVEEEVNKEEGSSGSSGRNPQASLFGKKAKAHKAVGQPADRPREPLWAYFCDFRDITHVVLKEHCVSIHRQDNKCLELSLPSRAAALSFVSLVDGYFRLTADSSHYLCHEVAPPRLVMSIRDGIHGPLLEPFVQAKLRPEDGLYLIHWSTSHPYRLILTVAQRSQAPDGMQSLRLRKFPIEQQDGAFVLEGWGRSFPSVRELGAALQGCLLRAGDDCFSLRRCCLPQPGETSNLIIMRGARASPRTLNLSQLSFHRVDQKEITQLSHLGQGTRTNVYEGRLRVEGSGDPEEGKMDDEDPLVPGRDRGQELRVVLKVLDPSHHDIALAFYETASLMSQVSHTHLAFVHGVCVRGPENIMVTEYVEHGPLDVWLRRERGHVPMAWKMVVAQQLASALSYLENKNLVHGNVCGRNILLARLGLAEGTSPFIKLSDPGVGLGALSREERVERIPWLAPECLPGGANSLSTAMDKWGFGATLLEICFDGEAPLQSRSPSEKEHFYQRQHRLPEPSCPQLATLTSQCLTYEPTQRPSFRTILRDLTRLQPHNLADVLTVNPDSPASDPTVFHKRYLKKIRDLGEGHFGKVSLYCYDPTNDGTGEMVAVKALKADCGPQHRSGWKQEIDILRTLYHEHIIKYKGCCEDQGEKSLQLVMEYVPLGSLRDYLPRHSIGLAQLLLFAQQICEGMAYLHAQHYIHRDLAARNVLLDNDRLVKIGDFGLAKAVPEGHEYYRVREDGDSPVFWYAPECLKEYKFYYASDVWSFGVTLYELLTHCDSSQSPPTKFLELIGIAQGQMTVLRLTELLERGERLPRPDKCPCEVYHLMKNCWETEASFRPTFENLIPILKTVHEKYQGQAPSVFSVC
# Outline: as §1
# JAK1 = JAK1 (Homo sapiens (Human), UniProt P23458); test: Biochemical JAK and Tyk2 kinase assays (LanthaScreen): JAK1; conditions: 1 h pre-incubation, ATP at Km; pIC50 converted to pKi by Cheng-Prusoff
# Chain of JAK1 (P23458 whole entry): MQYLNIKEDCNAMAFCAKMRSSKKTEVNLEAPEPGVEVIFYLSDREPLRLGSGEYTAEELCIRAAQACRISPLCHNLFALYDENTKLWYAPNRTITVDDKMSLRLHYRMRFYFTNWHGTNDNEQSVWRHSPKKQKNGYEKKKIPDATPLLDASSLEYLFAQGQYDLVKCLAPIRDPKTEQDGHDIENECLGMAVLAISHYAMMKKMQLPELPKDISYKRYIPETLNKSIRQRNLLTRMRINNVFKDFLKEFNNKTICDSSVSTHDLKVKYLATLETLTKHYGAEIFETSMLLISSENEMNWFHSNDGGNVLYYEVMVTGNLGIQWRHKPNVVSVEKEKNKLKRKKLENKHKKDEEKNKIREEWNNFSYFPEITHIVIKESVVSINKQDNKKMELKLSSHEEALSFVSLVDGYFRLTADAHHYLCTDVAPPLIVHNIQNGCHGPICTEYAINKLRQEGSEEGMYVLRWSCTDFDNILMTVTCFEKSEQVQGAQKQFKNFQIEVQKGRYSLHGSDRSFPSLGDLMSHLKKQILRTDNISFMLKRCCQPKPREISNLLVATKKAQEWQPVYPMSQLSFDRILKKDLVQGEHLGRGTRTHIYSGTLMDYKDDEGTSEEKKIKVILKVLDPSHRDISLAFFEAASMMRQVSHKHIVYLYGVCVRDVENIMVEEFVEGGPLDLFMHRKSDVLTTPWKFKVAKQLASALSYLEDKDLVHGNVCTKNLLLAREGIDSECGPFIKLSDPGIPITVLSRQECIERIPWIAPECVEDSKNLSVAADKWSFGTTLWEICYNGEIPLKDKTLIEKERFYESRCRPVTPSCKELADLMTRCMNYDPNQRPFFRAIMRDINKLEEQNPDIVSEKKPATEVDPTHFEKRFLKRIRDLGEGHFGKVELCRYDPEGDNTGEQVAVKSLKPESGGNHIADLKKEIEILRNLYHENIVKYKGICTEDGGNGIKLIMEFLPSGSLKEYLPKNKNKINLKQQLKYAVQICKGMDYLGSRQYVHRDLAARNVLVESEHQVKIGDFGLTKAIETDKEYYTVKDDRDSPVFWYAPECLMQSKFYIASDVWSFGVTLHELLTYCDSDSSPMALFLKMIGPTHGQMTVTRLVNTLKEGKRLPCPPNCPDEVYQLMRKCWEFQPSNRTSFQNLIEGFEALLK
# Outline: as §1
# JAK2 = JAK2 (Homo sapiens (Human), UniProt O60674); test: Biochemical JAK and Tyk2 kinase assays (LanthaScreen): JAK2; conditions: 1 h pre-incubation, ATP at Km; pIC50 converted to pKi by Cheng-Prusoff
# Chain of JAK2 (O60674 whole entry): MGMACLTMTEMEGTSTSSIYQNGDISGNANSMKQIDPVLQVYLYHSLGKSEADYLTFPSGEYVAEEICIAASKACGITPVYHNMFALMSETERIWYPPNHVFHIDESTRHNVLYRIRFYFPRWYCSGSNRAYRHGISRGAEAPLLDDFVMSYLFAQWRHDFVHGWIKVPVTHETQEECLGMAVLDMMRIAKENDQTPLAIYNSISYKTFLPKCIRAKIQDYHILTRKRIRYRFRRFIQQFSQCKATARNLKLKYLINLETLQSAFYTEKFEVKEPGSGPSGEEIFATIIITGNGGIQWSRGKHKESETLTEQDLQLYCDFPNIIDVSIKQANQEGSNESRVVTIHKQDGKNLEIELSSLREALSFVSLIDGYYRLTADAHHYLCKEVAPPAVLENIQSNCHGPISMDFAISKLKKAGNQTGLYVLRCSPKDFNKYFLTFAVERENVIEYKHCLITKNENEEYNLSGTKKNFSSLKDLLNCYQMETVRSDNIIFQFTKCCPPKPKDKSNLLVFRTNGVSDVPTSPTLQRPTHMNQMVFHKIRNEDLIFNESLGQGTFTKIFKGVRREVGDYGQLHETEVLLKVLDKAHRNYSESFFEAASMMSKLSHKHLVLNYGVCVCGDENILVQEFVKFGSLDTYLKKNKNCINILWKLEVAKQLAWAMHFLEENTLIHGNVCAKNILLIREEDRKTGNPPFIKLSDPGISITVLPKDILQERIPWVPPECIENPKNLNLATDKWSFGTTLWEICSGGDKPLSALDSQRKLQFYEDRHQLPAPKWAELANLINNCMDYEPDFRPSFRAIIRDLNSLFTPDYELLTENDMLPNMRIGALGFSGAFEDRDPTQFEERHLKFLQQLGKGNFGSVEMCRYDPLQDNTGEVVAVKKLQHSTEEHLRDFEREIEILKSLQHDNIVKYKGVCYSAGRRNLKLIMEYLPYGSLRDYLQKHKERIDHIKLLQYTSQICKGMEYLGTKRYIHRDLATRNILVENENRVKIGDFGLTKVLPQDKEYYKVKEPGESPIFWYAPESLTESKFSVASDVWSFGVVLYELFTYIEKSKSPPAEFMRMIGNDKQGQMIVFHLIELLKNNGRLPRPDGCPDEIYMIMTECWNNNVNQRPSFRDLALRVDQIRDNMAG
# Outline: as §1
# Chain of JAK3 (P52333 whole entry): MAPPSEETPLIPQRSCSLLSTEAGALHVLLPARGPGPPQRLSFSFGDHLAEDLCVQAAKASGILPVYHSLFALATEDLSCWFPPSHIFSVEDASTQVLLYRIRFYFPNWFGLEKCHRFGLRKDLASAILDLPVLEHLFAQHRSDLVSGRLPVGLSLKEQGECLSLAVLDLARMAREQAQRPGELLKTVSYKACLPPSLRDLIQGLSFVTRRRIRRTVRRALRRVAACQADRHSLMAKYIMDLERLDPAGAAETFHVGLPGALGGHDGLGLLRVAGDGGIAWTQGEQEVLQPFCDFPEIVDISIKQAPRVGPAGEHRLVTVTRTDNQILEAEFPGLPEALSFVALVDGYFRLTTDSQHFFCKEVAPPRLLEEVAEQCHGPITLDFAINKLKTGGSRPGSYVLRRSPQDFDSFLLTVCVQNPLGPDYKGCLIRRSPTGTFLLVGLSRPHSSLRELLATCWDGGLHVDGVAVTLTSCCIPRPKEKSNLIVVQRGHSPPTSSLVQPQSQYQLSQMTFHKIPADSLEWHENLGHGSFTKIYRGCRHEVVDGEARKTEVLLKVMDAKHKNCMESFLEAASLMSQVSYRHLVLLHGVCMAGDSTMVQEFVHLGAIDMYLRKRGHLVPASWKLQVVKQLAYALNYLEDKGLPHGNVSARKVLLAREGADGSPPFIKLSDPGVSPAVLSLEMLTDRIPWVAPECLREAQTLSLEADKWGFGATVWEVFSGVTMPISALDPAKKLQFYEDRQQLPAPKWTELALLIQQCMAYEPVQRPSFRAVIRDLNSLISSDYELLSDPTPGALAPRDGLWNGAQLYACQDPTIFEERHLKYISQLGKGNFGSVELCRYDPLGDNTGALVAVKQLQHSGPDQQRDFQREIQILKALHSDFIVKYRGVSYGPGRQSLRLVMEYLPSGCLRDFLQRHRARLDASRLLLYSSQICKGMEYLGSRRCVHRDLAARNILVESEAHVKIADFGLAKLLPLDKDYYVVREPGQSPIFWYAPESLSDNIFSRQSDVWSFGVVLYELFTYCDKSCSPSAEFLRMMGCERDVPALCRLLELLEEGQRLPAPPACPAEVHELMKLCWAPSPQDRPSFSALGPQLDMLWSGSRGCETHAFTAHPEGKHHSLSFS
Structure (SMILES),Ki (JAK3) [nM],JAK3 (pKi)-JAK1 (pKi) (JAK3),Tyk 2 (pKi) (Tyk2),JAK 1 (pKi) (JAK1),JAK 2 (pKi) (JAK2)
"C=CC(=O)N1CC(COc2cc(-c3ccc(O)c(Cl)c3)cn3cncc23)C1 [Example 12, 1-(3-(((6-(3-chloro-4-hydroxyphenyl)imidazo[1,5-a]pyridin-8-yl)oxy)methyl)azetidin-1-yl)prop-2-en-1-one]",0.1 to 1,A (A represents a value of 3 or above),E (E represents a pKi value of 7 or below (Ki of 100 nM or above)),E (E represents a pKi value of 7 or below (Ki of 100 nM or above)),E (E represents a pKi value of 7 or below (Ki of 100 nM or above))
"C=CC(=O)N1CC(COc2cc(-c3cc(F)c(O)cc3CC)cn3cncc23)C1 [Example 13, 1-(3-(((6-(2-ethyl-5-fluoro-4-hydroxyphenyl)imidazo[1,5-a]pyridin-8-yl)oxy)methyl)azetidin-1-yl)prop-2-en-1-one]",0.1 to 1,A (A represents a value of 3 or above),E (E represents a pKi value of 7 or below (Ki of 100 nM or above)),E (E represents a pKi value of 7 or below (Ki of 100 nM or above)),E (E represents a pKi value of 7 or below (Ki of 100 nM or above))

# From US10851102B2, “Imidazole and triazole containing bicyclic compounds as JAK inhibitors” (THERAVANCE BIOPHARMA R&D IP, LLC, priority 2019, dated 2020)
